Experimental data as given in the CheMixHub ionic liquid set.

Experiment: xn = mol fraction of the nth substance listed

CCCC[P+](C)(CCCC)CCCC.COS(=O)(=O)[O-] + CN1CCCC1=O
101 kPa
Settings | viscosity [mPa·s]
293.15 K, x1 = 0.8086 | 530
298.15 K, x1 = 0.056 | 7.6
298.15 K, x1 = 0.3764 | 80
298.15 K, x1 = 0.7129 | 290
298.15 K, x1 = 0.8086 | 370
298.15 K, x1 = 1 | 520
303.15 K, x1 = 0.0914 | 4.9
303.15 K, x1 = 0.1773 | 10.8
303.15 K, x1 = 0.2318 | 15.5
303.15 K, x1 = 0.2971 | 25
303.15 K, x1 = 0.8086 | 260
303.15 K, x1 = 0.9022 | 330
303.15 K, x1 = 0.9468 | 350
313.15 K, x1 = 0.056 | 1
313.15 K, x1 = 0.1773 | 4.5
318.15 K, x1 = 0.2318 | 7.1
318.15 K, x1 = 0.7129 | 73
318.15 K, x1 = 0.8086 | 112
323.15 K, x1 = 0.0914 | 2.5
323.15 K, x1 = 0.6014 | 30

CN1CCCC1=O + CCCCCCCCn1cc[n+](C)c1.[Cl-]
100 kPa, x1 = 1
Settings | viscosity [mPa·s]
293.15 K | 1.853
318.15 K | 1.259

C[N+]1(CCOCCOCCOCCOCC[N+]2(C)CCCC2)CCCC1.O=S(=O)([N-]S(=O)(=O)C(F)(F)F)C(F)(F)F.O=S(=O)([N-]S(=O)(=O)C(F)(F)F)C(F)(F)F + CC[n+]1ccn(C)c1.N#C[N-]C#N + O=S(=O)([N-]S(=O)(=O)C(F)(F)F)C(F)(F)F.[Li+]
100 kPa, x1 = 0.1429, x2 = 0.7537
Settings | electrical conductivity [S/m]
298 K | 0.47
303 K | 0.56
313 K | 0.77
323 K | 1.08
333 K | 1.34
343 K | 1.63

COC[n+]1ccccc1.O=S(=O)([N-]S(=O)(=O)C(F)(F)F)C(F)(F)F + O
101 kPa, x1 = 0.8483
Settings | electrical conductivity [S/m] | viscosity [mPa·s]
298.1 K | – | 37.4
298.15 K | 0.608 | –
303 K | – | 30.6
333 K | – | 12

CC(=O)c1ccccc1 + CCOS(=O)(=O)[O-].CC[n+]1ccn(C)c1
100 kPa
Settings | viscosity [mPa·s]
293.15 K, x1 = 0.7973 | 4.3
303.15 K, x1 = 0.2 | 27.1
303.15 K, x1 = 0.4002 | 16.4
303.15 K, x1 = 0.7973 | 5.3
303.15 K, x1 = 0.9502 | 2.48
303.15 K, x1 = 1 | 1.65
313.15 K, x1 = 0.6921 | 5.6
313.15 K, x1 = 0.8999 | 3.3
313.15 K, x1 = 0.9502 | 2
313.15 K, x1 = 1 | 1.37
323.15 K, x1 = 0.3008 | 10.7
323.15 K, x1 = 0.5999 | 5.8
323.15 K, x1 = 0.8999 | 1.94
323.15 K, x1 = 1 | 1.17
333.15 K, x1 = 0.0505 | 16.2
333.15 K, x1 = 0.0997 | 14.2

CCCC[n+]1ccn(C)c1.O=S(=O)([N-]S(=O)(=O)C(F)(F)F)C(F)(F)F + Nc1ccccc1
100 kPa, x2 = 0
Settings | viscosity [mPa·s]
288.15 K | 78.4
293.15 K | 61.5
298.15 K | 49.1
303.15 K | 39.9
308.15 K | 33.2
313.15 K | 27.7
318.15 K | 23.5
323.15 K | 20.13
328.15 K | 17.39
333.15 K | 15.2

CC[n+]1ccn(C)c1.O=S(=O)([O-])O + OCC(O)CO
100 kPa, x1 = 0.33
Settings | viscosity [mPa·s]
298.15 K | 320
303.15 K | 232
308.15 K | 168
313.15 K | 127
318.15 K | 99
323.15 K | 78

CC[n+]1ccn(C)c1.O=S(=O)([O-])O + CC[C@H](C)[C@H](N)C(=O)O + O
viscosity [mPa·s], 100 kPa
Settings | 293.15 K | 298.15 K | 303.15 K | 308.15 K | 313.15 K
x2 = 0, x1 = 0.0005421 | 1.046 | 0.929 | 0.824 | 0.75 | 0.678
x2 = 0, x1 = 0.0009056 | 1.068 | 0.949 | 0.843 | 0.759 | 0.684
x2 = 0, x1 = 0.001263 | 1.073 | 0.966 | 0.866 | 0.78 | 0.697
x2 = 0.0004219, x1 = 0.0009052 | 1.093 | 0.961 | 0.853 | 0.769 | 0.693
x2 = 0.0004673, x1 = 0.001263 | 1.101 | 0.979 | 0.878 | 0.79 | 0.708
x2 = 0.0005036, x1 = 0.0005418 | 1.075 | 0.943 | 0.837 | 0.762 | 0.69
x2 = 0.0007653, x1 = 0.0009049 | 1.113 | 0.97 | 0.862 | 0.777 | 0.701
x2 = 0.0008312, x1 = 0.0005417 | 1.094 | 0.953 | 0.845 | 0.77 | 0.697
x2 = 0.000832, x1 = 0.001262 | 1.122 | 0.989 | 0.887 | 0.799 | 0.716
x2 = 0.0009488, x1 = 0.0005416 | 1.1 | 0.956 | 0.848 | 0.773 | 0.7
x2 = 0.00107, x1 = 0.0009046 | 1.131 | 0.979 | 0.87 | 0.785 | 0.708
x2 = 0.001216, x1 = 0.001262 | 1.145 | 0.999 | 0.897 | 0.808 | 0.724
x2 = 0.001364, x1 = 0.001262 | 1.154 | 1.003 | 0.901 | 0.812 | 0.728
x2 = 0.001515, x1 = 0.0009042 | 1.157 | 0.991 | 0.881 | 0.795 | 0.717
x2 = 0.001572, x1 = 0.0005413 | 1.136 | 0.973 | 0.864 | 0.789 | 0.714
x2 = 0.001693, x1 = 0.0005412 | 1.143 | 0.977 | 0.867 | 0.792 | 0.717
x2 = 0.001746, x1 = 0.001261 | 1.176 | 1.013 | 0.91 | 0.821 | 0.736
x2 = 0.001796, x1 = 0.000904 | 1.174 | 0.999 | 0.888 | 0.802 | 0.724
x2 = 0.002205, x1 = 0.0009036 | 1.198 | 1.01 | 0.898 | 0.812 | 0.733
x2 = 0.002228, x1 = 0.0005409 | 1.174 | 0.991 | 0.881 | 0.805 | 0.729
x2 = 0.002256, x1 = 0.001261 | 1.206 | 1.027 | 0.923 | 0.833 | 0.747
x2 = 0.002728, x1 = 0.00126 | 1.23 | 1.04 | 0.935 | 0.844 | 0.758

CN1CCCC1=O + CCCC[n+]1ccn(C)c1.F[B-](F)(F)F
101 kPa, x1 = 1
Settings | viscosity [mPa·s]
298.15 K | 1.66
303.15 K | 1.49
308.15 K | 1.39
313.15 K | 1.31
323.15 K | 1.174
